# Experiments:
# Assay type in all cases: functional
# Staphylococcus aureus [1] = assay: Bactericidal activity against methicillin-resistant Staphylococcus aureus PU 20 harboring c-ermA gene incubated for 16 to 20 hrs by CLSI based broth microdilution method; details: time 16-20 hrs
# Staphylococcus aureus [2] = assay: Antibacterial activity against methicillin-resistant Staphylococcus aureus PU 20 harboring c-ermA gene incubated for 16 to 20 hrs by CLSI based broth microdilution method; details: time 16-20 hrs
# Staphylococcus aureus [3] = assay: Selectivity ratio of MBC for methicillin-resistant Staphylococcus aureus PU 32 harboring i-ermA gene to MIC for methicillin-resistant Staphylococcus aureus PU 32 harboring i-ermA gene
# Staphylococcus aureus [4] = assay: Bactericidal activity against methicillin-resistant Staphylococcus aureus PU 32 harboring i-ermA gene incubated for 16 to 20 hrs by CLSI based broth microdilution method; details: time 16-20 hrs
# Staphylococcus aureus [5] = assay: Antibacterial activity against methicillin-resistant Staphylococcus aureus PU 32 harboring i-ermA gene incubated for 16 to 20 hrs by CLSI based broth microdilution method; details: time 16-20 hrs
# Streptococcus pyogenes [6] = assay: Selectivity ratio of MBC for Streptococcus pyogenes 01-968 harboring i-ermB gene to MIC for Streptococcus pyogenes 01-968 harboring i-ermB gene
# Streptococcus pyogenes [7] = assay: Bactericidal activity against Streptococcus pyogenes 01-968 harboring i-ermB gene incubated for 16 to 20 hrs by CLSI based broth microdilution method; details: time 16-20 hrs
# Streptococcus pyogenes [8] = assay: Antibacterial activity against Streptococcus pyogenes 01-968 harboring i-ermB gene incubated for 16 to 20 hrs by CLSI based broth microdilution method; details: time 16-20 hrs
# Haemophilus influenzae [9] = assay: Selectivity ratio of MBC for Haemophilus influenzae ATCC 49247 to MIC for Haemophilus influenzae ATCC 49247
# Haemophilus influenzae [10] = assay: Bactericidal activity against Haemophilus influenzae ATCC 49247 incubated for 16 to 20 hrs by CLSI based broth microdilution method; details: time 16-20 hrs
# Haemophilus influenzae [11] = assay: Antibacterial activity against Haemophilus influenzae ATCC 49247 incubated for 16 to 20 hrs by CLSI based broth microdilution method; details: time 16-20 hrs
# Streptococcus pneumoniae [12] = assay: Selectivity ratio of MBC for Streptococcus pneumoniae 07P390 harboring c-erm gene to MIC for Streptococcus pneumoniae 07P390 harboring c-erm gene
# Streptococcus pneumoniae [13] = assay: Bactericidal activity against Streptococcus pneumoniae 07P390 harboring c-erm gene incubated for 16 to 20 hrs by CLSI based broth microdilution method; details: time 16-20 hrs
# Streptococcus pneumoniae [14] = assay: Antibacterial activity against Streptococcus pneumoniae 07P390 harboring c-erm gene incubated for 16 to 20 hrs by CLSI based broth microdilution method; details: time 16-20 hrs
# Streptococcus pneumoniae [15] = assay: Bactericidal activity against Streptococcus pneumoniae PU 09 harboring mef gene incubated for 16 to 20 hrs by CLSI based broth microdilution method; details: time 16-20 hrs
# Streptococcus pneumoniae [16] = assay: Selectivity ratio of MBC for Streptococcus pneumoniae ATCC 49619 to MIC for Streptococcus pneumoniae ATCC 49619
# Streptococcus pneumoniae [17] = assay: Antibacterial activity against Streptococcus pneumoniae PU 09 harboring mef gene incubated for 16 to 20 hrs by CLSI based broth microdilution method; details: time 16-20 hrs
# Streptococcus pneumoniae [18] = assay: Bactericidal activity against Streptococcus pneumoniae ATCC 49619 incubated for 16 to 20 hrs by CLSI based broth microdilution method; details: time 16-20 hrs
# Streptococcus pneumoniae [19] = assay: Antibacterial activity against Streptococcus pneumoniae ATCC 49619 incubated for 16 to 20 hrs by CLSI based broth microdilution method; details: time 16-20 hrs
# Streptococcus pneumoniae [20] = assay: Selectivity ratio of MBC for Streptococcus pneumoniae PU 09 harboring mef gene to MIC for Streptococcus pneumoniae PU 09 harboring mef gene
Structure (SMILES),MBC (Staphylococcus aureus [1]) [µg/mL],MIC (Staphylococcus aureus [2]) [µg/mL],Selectivity ratio (Staphylococcus aureus [3]),MBC (Staphylococcus aureus [4]) [µg/mL],MIC (Staphylococcus aureus [5]) [µg/mL],Selectivity ratio (Streptococcus pyogenes [6]),MBC (Streptococcus pyogenes [7]) [µg/mL],MIC (Streptococcus pyogenes [8]) [µg/mL],Selectivity ratio (Haemophilus influenzae [9]),MBC (Haemophilus influenzae [10]) [µg/mL],MIC (Haemophilus influenzae [11]) [µg/mL],Selectivity ratio (Streptococcus pneumoniae [12]),MBC (Streptococcus pneumoniae [13]) [µg/mL],MIC (Streptococcus pneumoniae [14]) [µg/mL],MBC (Streptococcus pneumoniae [15]) [µg/mL],Selectivity ratio (Streptococcus pneumoniae [16]),MIC (Streptococcus pneumoniae [17]) [µg/mL],MBC (Streptococcus pneumoniae [18]) [µg/mL],MIC (Streptococcus pneumoniae [19]) [µg/mL],Selectivity ratio (Streptococcus pneumoniae [20])
CC[C@H]1OC(=O)[C@H](C)[C@@H](OC(=O)CCNCCCCNc2cc3c(cc2F)c(=O)c(C(=O)O)cn3C2CC2)[C@H](C)[C@@H](O[C@@H]2O[C@H](C)C[C@H](N(C)C)[C@H]2O)[C@](C)(OC)C[C@@H](C)/C(=N\OC/C=C/c2cncc(C(N)=O)c2)[C@H](C)[C@H]2OC(=O)O[C@@]21C,> 256,> 256,1,32,32,>8,> 2,0.25,1,16,16,2,0.25,0.12,0.008,>=1,≤ 0.008,0.008,≤ 0.008,–
CC[C@H]1OC(=O)[C@H](C)[C@@H](OC(=O)CCN2CCN(c3cc4c(cc3F)c(=O)c(C(=O)O)cn4C3CC3)CC2)[C@H](C)[C@@H](O[C@@H]2O[C@H](C)C[C@H](N(C)C)[C@H]2O)[C@](C)(OC)C[C@@H](C)/C(=N\OCC#Cc2cncc(C(N)=O)c2)[C@H](C)[C@H]2OC(=O)O[C@@]21C,–,> 256,>8,> 64,8,2,1,0.5,1,8,8,>8,> 32,4,1,2,0.5,0.5,0.25,2
CC[C@H]1OC(=O)[C@H](C)[C@@H](OC(=O)CCNCCCCNc2cc3c(cc2F)c(=O)c(C(=O)O)cn3C2CC2)[C@H](C)[C@@H](O[C@@H]2O[C@H](C)C[C@H](N(C)C)[C@H]2O)[C@](C)(OC)C[C@@H](C)/C(=N\OCC#Cc2cncc(C(=O)NC3CC3)c2)[C@H](C)[C@H]2OC(=O)O[C@@]21C,> 256,128,2,64,32,>8,> 0.5,0.06,1,8,8,>8,> 0.25,0.03,0.008,>=1,≤ 0.008,0.008,≤ 0.008,–
CC[C@H]1OC(=O)[C@H](C)[C@@H](OC(=O)CCNCCCCNc2cc3c(cc2F)c(=O)c(C(=O)O)cn3C2CC2)[C@H](C)[C@@H](O[C@@H]2O[C@H](C)C[C@H](N(C)C)[C@H]2O)[C@](C)(OC)C[C@@H](C)/C(=N\OCC#Cc2cncc(C(N)=O)c2)[C@H](C)[C@H]2OC(=O)O[C@@]21C,> 256,128,2,128,64,>8,> 0.5,0.06,1,2,2,>8,> 0.5,0.06,0.008,>=1,≤ 0.008,0.008,≤ 0.008,–

# — ChEMBL document CHEMBL5608186, “Design, synthesis and structure-activity relationships of novel non-ketolides: 9-Oxime clarithromycin featured with seven-to thirteen-atom-length diamine linkers at 3-OH” (Eur J Med Chem, 2024)
